From ChEMBL document CHEMBL3396957, “Heteroatom insertion into 3,4-dihydro-1H-quinolin-2-ones leads to potent and selective inhibitors of human and rat aldosterone synthase” (Eur J Med Chem, 2015)

How the values were obtained:
[1] = molecular target: T1, Cytochrome P450 11B2, mitochondrial (Homo sapiens, UniProt P19099); test: Inhibition of CYP11B2 […] cells using [3H]-11-deoxycorticosterone as substrate at 500 nM incubated for 1 hr prior to substrate addition measured after 45 mins by HPLC analysis; assay type: cell-based; details: 0.75 h
T1 sequence (P19099 whole entry): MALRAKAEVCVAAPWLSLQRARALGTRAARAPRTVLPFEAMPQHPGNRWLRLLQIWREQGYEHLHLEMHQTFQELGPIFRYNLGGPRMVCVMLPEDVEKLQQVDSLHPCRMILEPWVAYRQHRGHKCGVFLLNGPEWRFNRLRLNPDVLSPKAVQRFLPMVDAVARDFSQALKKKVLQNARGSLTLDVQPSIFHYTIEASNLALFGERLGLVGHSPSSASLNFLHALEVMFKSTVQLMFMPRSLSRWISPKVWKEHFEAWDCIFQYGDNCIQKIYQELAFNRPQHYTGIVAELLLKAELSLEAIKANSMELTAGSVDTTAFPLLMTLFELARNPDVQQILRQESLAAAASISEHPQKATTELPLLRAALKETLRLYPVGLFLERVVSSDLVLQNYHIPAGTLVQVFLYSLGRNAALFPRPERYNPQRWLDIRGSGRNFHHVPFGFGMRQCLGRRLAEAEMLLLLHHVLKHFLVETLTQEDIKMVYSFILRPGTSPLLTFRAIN

[2] = molecular target: T1, Cytochrome P450 11B2, mitochondrial; test: Inhibition of CYP11B2 […] cells using [3H]-11-deoxycorticosterone as substrate incubated for 1 hr prior to substrate addition measured after 45 mins by HPLC analysis; assay type: cell-based
[3] = molecular target: T2, Cytochrome P450 11B1, mitochondrial (Homo sapiens, UniProt P15538); test: (§1) Inhibition of CYP11B1 […] cells using [3H]-11-deoxycorticosterone as substrate incubated for 1 hr prior to substrate addition measured after 25 mins by HPLC analysis; assay type: cell-based
T2 sequence (P15538 whole entry): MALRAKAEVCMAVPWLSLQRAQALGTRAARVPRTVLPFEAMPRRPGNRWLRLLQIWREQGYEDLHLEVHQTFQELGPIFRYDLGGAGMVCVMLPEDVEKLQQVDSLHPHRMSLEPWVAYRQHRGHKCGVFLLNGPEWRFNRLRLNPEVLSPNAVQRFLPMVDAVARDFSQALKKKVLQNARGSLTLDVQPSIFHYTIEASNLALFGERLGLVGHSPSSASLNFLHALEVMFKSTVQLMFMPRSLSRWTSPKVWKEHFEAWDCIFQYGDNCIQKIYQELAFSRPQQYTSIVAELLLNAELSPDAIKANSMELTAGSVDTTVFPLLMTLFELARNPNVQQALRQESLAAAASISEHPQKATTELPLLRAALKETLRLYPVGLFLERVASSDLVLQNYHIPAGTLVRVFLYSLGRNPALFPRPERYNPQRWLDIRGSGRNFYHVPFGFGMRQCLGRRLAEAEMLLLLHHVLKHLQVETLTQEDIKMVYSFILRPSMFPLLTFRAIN

CYP17 = molecular target: T3, CYP17 (Homo sapiens, UniProt P05093); test: Inhibition of human recombinant CYP17 expressed in Escherichia coli using progesterone as substrate at 2 uM; details: probe progesterone
T3 sequence (P05093 whole entry): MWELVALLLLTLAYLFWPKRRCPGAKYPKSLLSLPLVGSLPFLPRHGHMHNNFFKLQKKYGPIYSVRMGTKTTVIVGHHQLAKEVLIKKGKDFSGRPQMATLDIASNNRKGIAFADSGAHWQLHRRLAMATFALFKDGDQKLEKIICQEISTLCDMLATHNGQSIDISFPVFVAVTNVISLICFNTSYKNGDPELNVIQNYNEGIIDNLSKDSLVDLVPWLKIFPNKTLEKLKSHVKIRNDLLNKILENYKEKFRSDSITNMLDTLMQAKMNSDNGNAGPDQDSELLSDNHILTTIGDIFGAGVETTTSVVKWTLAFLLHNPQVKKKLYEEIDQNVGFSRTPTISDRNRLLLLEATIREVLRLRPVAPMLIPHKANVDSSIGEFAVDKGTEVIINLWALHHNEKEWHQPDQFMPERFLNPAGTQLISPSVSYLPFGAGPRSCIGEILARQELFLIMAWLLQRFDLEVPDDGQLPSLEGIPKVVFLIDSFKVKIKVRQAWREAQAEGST

CYP19 (aromatase) = molecular target: T4, CYP19 (aromatase) (Homo sapiens, UniProt P11511); test: Inhibition of human recombinant CYP19 using [1beta-3H]androstenedione as substrate at 500 nM; details: recombinant CYP19, probe [1beta-3H]androstenedione
T4 sequence (P11511 whole entry): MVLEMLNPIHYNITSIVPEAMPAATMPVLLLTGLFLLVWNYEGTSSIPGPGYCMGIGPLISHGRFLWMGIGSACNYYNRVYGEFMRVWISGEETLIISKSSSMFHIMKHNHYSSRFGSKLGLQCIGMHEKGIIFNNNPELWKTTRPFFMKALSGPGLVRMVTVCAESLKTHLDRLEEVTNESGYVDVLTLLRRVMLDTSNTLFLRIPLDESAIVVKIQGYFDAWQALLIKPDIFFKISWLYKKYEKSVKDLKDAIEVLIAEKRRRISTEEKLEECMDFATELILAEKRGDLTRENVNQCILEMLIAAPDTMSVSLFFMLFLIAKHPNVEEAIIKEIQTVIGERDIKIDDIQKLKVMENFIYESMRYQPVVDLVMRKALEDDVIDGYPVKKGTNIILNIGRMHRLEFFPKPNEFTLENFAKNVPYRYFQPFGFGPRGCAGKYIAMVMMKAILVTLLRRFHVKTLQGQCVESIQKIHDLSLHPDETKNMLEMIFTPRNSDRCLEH

CYP11B1 = molecular target: T5, CYP11B1 (Homo sapiens, UniProt P15538); test: as §1; assay type: cell-based; details: human, V79MZ cells expressing CYP11B1, probe [3H]-11-deoxycorticosterone
T5 sequence (P15538 whole entry): T2 sequence (P15538 whole entry)

[4] = molecular target: T6, Cytochrome P450 11B2, mitochondrial (Rattus norvegicus, UniProt P30099); test: Inhibition of rat CYP11B2 using [3H]-11-deoxycorticosterone as substrate at 2 uM incubated for 1 hr prior to substrate addition measured after 7 hrs by HPLC analysis
T6 sequence (P30099 whole entry): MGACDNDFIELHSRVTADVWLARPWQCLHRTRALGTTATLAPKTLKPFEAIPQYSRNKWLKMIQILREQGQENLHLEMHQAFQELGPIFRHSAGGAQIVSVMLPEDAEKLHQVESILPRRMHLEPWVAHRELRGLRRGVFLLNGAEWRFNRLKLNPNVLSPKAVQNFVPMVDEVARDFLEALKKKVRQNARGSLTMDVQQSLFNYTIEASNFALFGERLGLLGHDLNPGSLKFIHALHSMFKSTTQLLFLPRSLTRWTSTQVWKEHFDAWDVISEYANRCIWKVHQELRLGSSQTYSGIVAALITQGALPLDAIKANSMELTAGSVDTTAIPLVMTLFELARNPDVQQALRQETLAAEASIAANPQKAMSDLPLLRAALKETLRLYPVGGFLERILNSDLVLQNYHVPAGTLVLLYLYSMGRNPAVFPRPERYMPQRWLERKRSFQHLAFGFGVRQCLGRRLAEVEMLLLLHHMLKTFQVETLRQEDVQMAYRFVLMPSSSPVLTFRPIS

[5] = molecular target: T6, Cytochrome P450 11B2, mitochondrial; test: Inhibition of rat CYP11B2 using [3H]-11-deoxycorticosterone as substrate at 0.5 uM incubated for 1 hr prior to substrate addition measured after 7 hrs by HPLC analysis; details: read-out: INH

For `CN1C(=O)COc2cc(-c3cccnc3)ccc21`, the inhibition at 0.5 µM [1] was 98%, the IC50 [2] was 11 nM and the IC50 [3] was 776 nM. For the same molecule, the inhibition at 2 µM (CYP17) was < 10% and the inhibition at 0.5 µM (CYP19 (aromatase)) was 20%.
Molecule `O=C1CSc2cc(-c3cccnc3)ccc2N1` has an IC50 [2] of 12 nM and an IC50 at 25 min (CYP11B1) of 525 nM.
Molecule `O=C1CCc2cc(-c3cccnc3)ccc2N1` has an IC50 [2] of 28 nM, an IC50 at 25 min (CYP11B1) of 6750 nM and an inhibition at 2 µM (CYP17) of 20%. For the same molecule, the inhibition at 0.5 µM (CYP19 (aromatase)) was 31% and the inhibition at 2 µM [4] was < 5%.
With `O=C1NCc2cc(-c3cccnc3)ccc2N1` the inhibition at 0.5 µM [1] was 72%, the IC50 [2] was 228 nM and the IC50 [3] was 120 nM.
`N#Cc1ccc(C2CCCc3cncn32)cc1` (stereo unspecified) [FADROZOLE] gave an inhibition at 0.5 µM [5] of 67%.
